Values of other authors, collected in US20080318919A1, “Cefquinome Compositions and Methods of Their Use” (Intervet International B.V., priority 2005, published 2008).

System: Mannheimia haemolytica
Settings: concentration that inhibits the growth of 90% of the target pathogen

Structure (SMILES): CO/N=C(\C(=O)N[C@@H]1C(=O)N2C(C(=O)[O-])=C(C[n+]3cccc4c3CCCC4)CS[C@H]12)c1csc(N)n1 [cefquinome, Cefquinome]
- MIC90: about 0.25 μg/ml
